From the NIST ThermoML archive (doi:10.1021/acs.jced.9b00414)
Numbers after ± are expanded uncertainties. Values belong to the compound of their own block, whether it stands above or below them.

Conditions: Liquid, Ebulliometric method (Recirculating still)

vapor or sublimation pressure (428.57 K): 101.3 ± 1.2 kPa
Structure (SMILES): O=C1CCCCC1 [cyclohexanone]

vapor or sublimation pressure (363.36 K): 101.3 ± 1.2 kPa
Structure (SMILES): COC(=O)OC [dimethyl carbonate]

vapor or sublimation pressure (351.45 K): 101.3 ± 1.2 kPa
Structure (SMILES): CCO [ethanol]

Continued, compound first:

Structure (SMILES): Cc1ccccc1C [1,2-dimethylbenzene]
vapor or sublimation pressure (417.43 K): 101.3 ± 1.2 kPa

Structure (SMILES): CCCCOC(=O)CCC [butyl butanoate]
vapor or sublimation pressure (438.28 K): 101.3 ± 1.2 kPa
